Ends that are not written are not given here.
Legend:
IAPs = settings: cited from earlier work
Excerpt: (§1) First, the cathepsin B-cleavable SMAC-P, SMAC-P-FRRG ([…]), was conjugated to a DOX through one-step EDC/NHS reaction, resulting in SMAC-P-FRRG-DOX (Fig. 1a and Additional file 1: Figure S1).

cathepsin L = settings: cited from earlier work
Excerpt: as §1

cathepsin E = settings: cited from earlier work
Excerpt: as §1

caspase-3 = settings: cited from earlier work
Excerpt: as §1

cathepsin D = settings: cited from earlier work
Excerpt: as §1

MMP-9 = settings: cited from earlier work
Excerpt: as §1

[1] = Particle stability (particle size over time) in saline, mouse plasma or serum; assay type: physicochemical
Experimental: The inset pictures indicate representative images of Aposomes in mouse serum conditions. g Release profiles of free DOX, DOXIL and Aposomes. […] As a control, SMAC-P-FRRG-DOX in MES buffer in the absence of cathepsin B was analyzed using an HPLC system.

[2] = Size distribution and zeta potential by zeta-sizer (DLS); assay type: physicochemical; settings: Zetasizer, 1 mg/ml; saline or D.W (Figure S3)
[3] = tested on: cancer, normal and immune cells (CT26, 4T1, H9C2, HDF, M0 and M1 macrophages, DCs, T cells); assay: Cytotoxicity study (CCK-8), all cell types; settings: read-out: IC50 values in all the cell types (span); CCK-8, 48 h, concentrations based on DOX contents
Experimental: Briefly, 5 × 10^3 cells were seeded in 96-well cell culture plates and cultured at 37 C for 24 h. […] Finally, 20 μl Cell Counting Kit-8 (CCK-8) solution was added and then further incubated for 20 min. The cell viability was measured using a UV/Vis microplate reader.

[4] = Drug release profile from dialysis membranes; assay type: physicochemical; settings: very fast release
CT26 cells = assay: Cellular uptake and nuclear localization of DOX fluorescence (confocal); settings: both naive or Z-FA-FMK-treated CT26 cells; 2 µM, 48 h
Experimental: The cells were then washed with DPBS, fixed with 4% paraformaldehyde for 10 min, and stained with 4ʹ,6-diamidino-2-phenylindole (DAPI) for 5 min. […] The cellular uptake of each drug in different cell lines were quantified using flow cytometer (CytoFLEX, BECKMAN COULTER, USA).

IAPs in CT26 cells = assay: Intracellular IAPs expression by western blot; assay type: cell-based, mouse; settings: 48 h
CT26 tumor tissues = assay: Antitumor immune response in tumor tissues (flow cytometry); assay type: in vivo, mice; settings: day 13 after treatment, 3 mg/kg DOX dose once every three days
Experimental: (§2) Antitumor efficacy was assessed by measuring tumor volumes that are calculated as the largest diameter × the smallest diameter^2 × 0.53. To analyze the increase of tumor-infiltrating lymphocytes by antitumor immune response, tumor tissues were collected from mice on day 13 after treatment, and single cells were isolated from tumor tissues using a tumor dissociation kit. Following single cell counting, the cells were incubated with FcBlock for 10 min to avoid non-specific antibody binding. Then, multi-parameter staining was performed at 4 °C for 50 min to identify the following populations within the tumor tissues: (i) CRT-positive cancer cells (CD45^−CRT^+), (ii) mature DCs (CD11c^+CD40^+CD86^+), (iii) cytotoxic T cells (CD45^+CD3^+CD8^+) and (iv) regulatory T lymphocytes (Tregs; CD45^+CD3^+CD4^+CD25^+).

[5] = tested on: CT26 colon tumor-bearing mice
Experimental: as §2

[6] = tested on: CT26 colon tumor-bearing mice; assay: In vivo antitumor efficacy
Experimental: as §2

[7] = tested on: CT26 cells co-cultured with bone marrow-derived macrophages (BMDMs); assay: Co-culture assay: phagocytosis of treated CT26 cells by BMDMs; settings: CT26 treated 2 µM (DOX contents) 48 h, pHrodo labeled; co-cultured 2 h with BMDMs; confocal imaging
Experimental: For these analyses, bone marrow cells were collected from 5-week-old male BALB/C mice and cultured with differentiation media containing M-CSF (20 ng/mL) for 7 days, followed by labeling with CellTracker Green. […] Then, both cells were co-cultured at 37 C for 2 h, and the phagocytosis of cancer cells was observed using a CLSM.

In the case of AVPIAQ, the “IAP antagonism compared to AVPIAQK, AVPIA and AVPI” value (IAPs) is given as “potent activity for IAP antagonism compared to other sequences”.
For “AVPIAQFRRG [SMAC-P-FRRG-DOX, prodrug of SMAC mimetic peptide (AVPIAQ), cathepsin B-cleavable peptide (FRRG) and doxorubicin]”, the “cleavage by cathepsin L” value (cathepsin L) is given as “not cleaved”, the “cleavage by cathepsin E” value (cathepsin E) is given as “not cleaved” and the “cleavage by caspase-3” value (caspase-3) is given as “not cleaved”. For the same compound, the “cleavage by cathepsin D” value (cathepsin D) was “not cleaved”, the “cleavage by MMP-9” value (MMP-9) was “not cleaved” and the “particle stability in mouse plasma” value ([1]; mouse plasma, 1 mg/ml, up to 5 days, particle size) was “remarkable aggregation after 2 days”. The “particle stability in mouse serum” value ([1]; mouse serum, as worded in Conclusions) was “significant aggregation from 48 h” and the zeta potential [2] was 14.9 ± 0.814 mV.
In the case of “AVPIAQFR [peptide released from SMAC-P-FRRG-DOX by cathepsin B]”, the “IAPs antagonism activity of cathepsin B cleavage product” value (IAPs) is listed as “comparable IAPs antagonism activity to AVPIAQ”.
For COc1cccc2c1C(=O)c1c(O)c3c(c(O)c1C2=O)C[C@@](O)(C(=O)CO)C[C@@H]3O[C@H]1C[C@H](N)[C@H](O)[C@H](C)O1.Cl [free DOX, Doxorubicin hydrochloride], the IC50 [3] was 3 to 380 nM, the “time of release from dialysis membranes” value [4] was ≤ 6 h and the “free DOX fluorescence detected in the nuclei” value (CT26 cells) was “more than 90%”. The “intracellular IAPs expression levels” value (IAPs in CT26 cells) was “significantly upregulated”, the “percentage of CRT-positive tumor cells (CD45−CRT+) within the tumor tissues” value (CT26 tumor tissues) was 57.67 ± 0.91% and the “mice died within 13 days” value ([5]; 3 mg/kg DOX dose i.v. once every three days) was 4 out of 5. The “body weight loss and tissue damage in major organs” value ([5]; 3 mg/kg DOX dose once every three days, H and E of major organs) was “significant body weight loss along with extensive tissue damages”, the “median survival / survival of mice” value ([6]; 3 mg/kg DOX dose once every three days) was 14 days and the “tumor volume on day 14” value ([6]; i.v. 3 mg/kg DOX dose once every three days, n = 5, mean ± SD) was 556.2 ± 149.82 mm^3. For the same compound, the “phagocytosis of CT26 cells by BMDMs” value [7] was 2.1 ± 0.21%.

From article PMC10938764 (Journal of Nanobiotechnology, 2024)
